From paper PMC4456024 (Chemical biology & drug design, 2014)

Target: cardiac troponin C (cNTnC) (Homo sapiens, UniProt P63316, C35S/C84S)
Test: 2D 1H, […]-HSQC NMR titration, […] fit
Format: binding

Kd: 721 ± 16 µM
Compound: Cc1ccc(C)c(N2CCN(c3ccncc3N)CC2)c1 [compound 6, 4-(4-(2,5-dimethylphenyl)-1-piperazinyl)-3-pyridinamine]
